# Measured values as given in patent publication US8227510B2, “Combine use of pterostilbene and quercetin for the production of cancer treatment medicaments” (Universitat de Valencia, priority 2004, dated 2012).
# Marks after values point to notes of the source that are not given here.
# Experiments:
# [1] = system: B16M-F10 cells / HSE; assay: Adhesion in vitro of B16M-F10 cells to hepatic sinusoidal endothelium; type: cell-based, mice; conditions: for inhibition of adhesion of tumor cells to the endothelium: brief exposure (60 minutes), TNF and IFN present; for Tumor cells Adhesion (%): t-RESV 12 μM, t-PTER 40 μM, QUER 20 μM, 60 minutes exposure, cytokine-treated HSE, no polyphenol = 100%
# Excerpt: C57BL/6J mice were used (male, 10 to 12 weeks old) from IFFA Credo (L'Arbreole, France). The hepatic sinusoidal endothelium (HSE) was separated and identified as described previously (20). The sinusoidal cells were separated in a gradient of 17.5% metrizamide (w/v). The HSE cultures were established and maintained in pyrogen-free DMEM supplemented as described previously for the B16M-F10 cells. Differential adhesion of the endothelial cells to the collagen matrix and washing permitted complete removal of other types of sinusoidal cells (Kupffer's cells, astrocytes, lymphocytes) from the culture flasks.
# The B16M-F10 cells were labeled with 2′,7′-bis-(2-carboxyethyl)-5-(and -6)-carboxyfluorescein acetoxymethyl ester (BCECF-AM; Moleculer Probes, Eugene, Oreg., USA) (10^6 cells were incubated for 20 minutes at 37° C. in 1 ml of DMEM buffered with HEPES that contained 50 μg of BCECF-AM and 5 μl of DMSO). After washing, the cells that contained BCECF-AM were resuspended in DMEM buffered with HEPES without phenol red at a concentration of 2.5×10^6 cells/ml and were added (0.2 ml/well) to the endothelial cell culture (seeded 24 hours previously), as well as to wells of plastic and controls previously treated with collagen. The plates were then incubated at 37° C. and, 20 minutes later, the wells were washed three times with fresh medium, and then their fluorescence was read using a Fluoroskan Ascent FL (Labsystems, Manchester, UK). The number of adhering tumor cells was quantified with arbitrary fluorescence units based on the percentage relative to the initial number of B16M-F10 cells added to the HSE culture (20). The damage caused to the B16M-F10 cells during their adhesion in vitro to the HSE was evaluated as described previously (21) using tumor cells labeled with calcein-AM (Molecular Probes, Eugene, Oreg., USA). The integrity of the B16M-F10 cells cultivated on their own was evaluated by exclusion of trypan blue and measuring the lactate dehydrogenase released to the extracellular medium (22). The other reagents used in the tumoral cytotoxicity experiments were from Sigma.
# Recombinant murine TNF- (2×10^7 U/mg of protein) and recombinant murine interferon-(IFN-; 10^5 U/mg of protein) were obtained from Sigma. The concentrated solutions (5×10^5 U TNF-/ml and 25×10^4 U IFN-/ml) were diluted in sterile saline (0.9% NaCl), adjusted to pH 7.0, and stored at 4° C.
# In addition to the effect of PTER+QUER on tumor growth, we investigated the antimetastatic potential. The interaction of B16M-F10 and HSE cells was studied in vitro first. On the basis of the results obtained previously, we chose brief periods of exposure (60 minutes) of the metastatic cells to the polyphenols (at the concentrations measured in the plasma after their i.v. administration). Since the interaction of the metastatic cells with the endothelial cells and Kupffer's cells activates the local release of proinflammatory cytokines [promoters of adhesion of cancer cells to the endothelium and of invasion (14, 31)], we investigated the effect of the polyphenols on the adhesion of B16M-F10 cells to the HSE in the presence of TNF- and IFN-—this combination of cytokines induces maximum activation of the HSE (see ref. 20 and the references therein) (Table 3). […] A similar effect (˜60% inhibition of adhesion) was found in the presence of t-PTER (Table 3). […]
# [2] = system: B16M-F10 cells / HSE; assay: In-vitro invasion of the monolayer of hepatic endothelial cells by B16M-F10 cells; type: cell-based, mice; conditions: t-RESV 12 μM, t-PTER 40 μM, QUER 20 μM; 5 days culture; none 157 ± 17
# Description: The test of invasion of the endothelial cell monolayer by B16M-F10 cells was carried out in accordance with the method of Ohigashi et al. (23) with some modifications. The HSE cells were seeded on culture plates with grids coated with gelatin (1%). When the cells attained confluence, the culture medium was replaced with freshly prepared medium. After 2 hours of incubation, the cultures were washed with DMEM and then the B16M-F10 cells were seeded on the HSE cells, maintaining the culture for 5 days. The invasion capacity of the B16M-F10 cells was measured by counting the number of colonies per 1 cm^2 formed under the HSE monolayer using a phase-contrast microscope.
# HSE cells, previously cultured for 24 hours [±polyphenol(s), added 12 hours from seeding and removed by washing 60 minutes later], were cocultured with B16M-F10 cells previously cultured for 72 hours [±polyphenol(s), as in FIG. 2]. Cytokines [100 units of TNF-/ml and 50 units of IFN-/ml, see (20)] or the vehicle (physiological saline) were added to the culture media 12 hours before starting the cocultures. The proportion of adhesion of the tumor cells to the HSE was ˜1:1 in the cultures treated with cytokines in the absence of polyphenols (this value was assigned an adhesion level of 100%). In the experiments of adhesion between B16M-F10 cells and endothelial cells, 20 minutes after adding the B16M-F10 to the HSE, the plates were washed in the manner described in the methodology. In the tests of endothelium-induced cytotoxicity on the B16M-F10 cells, the tumor damage (expressed as the percentage of tumor cells that lost viability during the incubation period of 4-6 hours, see the methodology) was determined after 6 hours of incubation. During the 6-hour incubation period, the percentage viability of the HSE cells was 99-100% in all cases. All of the tests were carried out in the absence or in the presence of t-RESV (12 μM), t-PTER (40 μM), and/or QUER (20 μM). […]
Structure (SMILES),inhibition of adhesion of tumor cells to the endothelium [1],Tumor cells Adhesion (%) [1],Number of colonies penetrated per cm^2 [2]
"O=c1c(O)c(-c2ccc(O)c(O)c2)oc2cc(O)cc(O)c12 [QUER, quercetin]",without affecting the level of adhesion,98 ± 11%,106 ± 15** per cm^2
"Oc1ccc(C=Cc2cc(O)cc(O)c2)cc1 [RESV, resveratrol, reference compound]",,53 ± 7 %,104 ± 12** per cm^2
"COc1cc(/C=C/c2ccc(O)cc2)cc(OC)c1 [PTER, pterostilbene]",~60%,40 ± 6 %,89 ± 9** per cm^2
